The record followed here is patent publication US20150315218A1, “SALTS OF PRODRUGS OF PIPERAZINE AND SUBSTITUTED PIPERIDINE ANTIVIRAL AGENTS” (Bristol-Myers Squibb Company, priority 2004, published 2015).

Each structure is given as a SMILES string. Counter-ions that a name gives are not always drawn. Like-named read-outs stand apart in the source and are kept apart here.

Data set [1] is described as follows: IV and oral rat PK (MAP) studies A, B, C of phosphate prodrugs and parent studies A1, B1, C1. The data set is classed as in vivo, Sprague-Dawley rats. To be noted: rats; for Vd / half-life / concentration at 24 h / AUC(0-t) / Tmax / Cmax: male, Sprague-Dawley, rat; for Vd: read-out: Vss i.v.; for concentration at 24 h: oral, read-out: Cp @ 24 hr p.o.; for AUC(0-t): AUC 0-24 h (μM * hr). As to the method: The rats for oral dosing studies were fasted overnight. […] The dosing solutions of all three prodrugs for both IV and oral administration were prepared in 100% normal saline at 1 mg/mL (dosing solution concentrations were parent compound equivalent). Plasma samples were collected in EDTA vacutainers over 24 hrs, and analyzed by LC/MS/MS for both the prodrugs and parent molecules. Pharmacokinetic analysis was performed on Kinetica™.
Plasma and tissue samples were collected and stored at −20° C. until analysis. […] Rats were fasted overnight in PO studies. […] In the PO studies, rats (n=3) received PO doses of 5 and 100 mg/kg.
Male Sprague-Dawley rats (300-350 g, Hilltop Lab Animals, Inc., Scottdale, Pa.) with cannulas implanted in the jugular vein and/or bile duct were used. The rats were fasted overnight in the PO pharmacokinetic studies. Blood samples of 0.3 ml were collected from the jugular vein in EDTA-containing microtainer tubes (Becton Dickinson, Franklin Lakes, N.J.), and centrifuged to separate plasma.

Data set [2] is described as follows: Stability of prodrug in Tris-HCl buffer.
Method: The stability of Iab was also evaluated, as described above, in Tris-HCl buffer (0.1 M, pH 7.5). The stability of Ibb was also evaluated, as described above, in Tris-HCl buffer (0.1 M, pH 7.5). The stability of Icb was also evaluated, as described above, in Tris-HCl buffer (0.1 M, pH 7.5).
The nature of data set [3]: Stability of prodrug in fresh EDTA blood (dog).
Method: (§2) The stability of Iab was studied in fresh blood and serum from rat, dog, monkey and human (n=2). The blood was collected in vacutainers containing K2EDTA (Becton Dickinson, Franklin Lakes, N.J.). The serum was collected in vacutainers containing no anticoagulant. Iab was incubated at a starting concentration of approximately 10 μM for 60-90 min at 37° C. Serial samples were taken at the pre-determined times. Aliquots of blood samples (200 μL) were first mixed with 100 μL of water followed by 400 μL of acetonitrile. The serum samples (50 μL) were added into microtainers containing K2EDTA (Becton Dickinson, Franklin Lakes, N.J.) followed by the addition of 100 μL of acetonitrile. The supernatant was analyzed for both Iab and IVa by LC/MS/MS. The stability of Ibb was studied in fresh blood and serum from rat, dog, monkey and human (n=2). The blood was collected in vacutainers containing K2EDTA (Becton Dickinson, Franklin Lakes, N.J.). The serum was collected in vacutainers containing no anticoagulant. Ibb was incubated at a starting concentration of approximately 15 μM for 90 min at 37° C. Serial samples were taken at the pre-determined times. Aliquots of blood samples (200 μL) were first mixed with 100 μL of water followed by 400 μL of acetonitrile. The serum samples (50 μL) were added into microtainers containing K2EDTA (Becton Dickinson, Franklin Lakes, N.J.) followed by the addition of 100 μL of acetonitrile. […] The stability of Icb was studied in fresh blood and serum from rat, dog, monkey and human (n=2). The blood was collected in vacutainers containing K2EDTA (Becton Dickinson, Franklin Lakes, N.J.). The serum was collected in vacutainers containing no anticoagulant. Icb was incubated at a starting concentration of approximately 10 μM for 90 min at 37° C. Serial samples were taken at the pre-determined times. Aliquots of blood samples (200 μL) were first mixed with 100 μL of water followed by 400 μL of acetonitrile. The serum samples (50 μL) were added into microtainers containing K2EDTA (Becton Dickinson, Franklin Lakes, N.J.) followed by the addition of 100 μL of acetonitrile.
Data set [4] is described as follows: Stability (hydrolysis) of prodrug in fresh serum (human). Conditions: Human Serum.
Data set [5] is described as follows: Stability (hydrolysis) of prodrug in fresh serum (monkey). To be noted: Monkey Serum.
Method: as §2
In data set [6] the target is T1, human placental alkaline phosphatase (ALP) (Homo sapiens, UniProt P05187).
T1 construct: To study the hydrolysis of lab in a purified form of human ALP, Iab was incubated in human placental ALP solutions; host or cells: human placenta (inferred from the name and from 'ALP derived from humans')
T1 sequence (P05187 23-506 limits assumed): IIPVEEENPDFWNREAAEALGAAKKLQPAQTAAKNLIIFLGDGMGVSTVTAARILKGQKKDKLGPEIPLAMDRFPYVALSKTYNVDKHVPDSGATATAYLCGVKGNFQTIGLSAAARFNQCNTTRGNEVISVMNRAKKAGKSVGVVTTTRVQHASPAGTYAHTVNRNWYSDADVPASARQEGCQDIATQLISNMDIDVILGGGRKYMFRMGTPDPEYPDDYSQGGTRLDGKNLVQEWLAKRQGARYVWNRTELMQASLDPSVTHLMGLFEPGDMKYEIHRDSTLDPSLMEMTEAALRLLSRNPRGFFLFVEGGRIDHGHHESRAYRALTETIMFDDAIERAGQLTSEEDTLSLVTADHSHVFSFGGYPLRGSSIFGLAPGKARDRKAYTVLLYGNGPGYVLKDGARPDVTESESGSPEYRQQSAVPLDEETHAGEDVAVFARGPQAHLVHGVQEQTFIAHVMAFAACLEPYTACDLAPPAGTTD
Nature of the data set: Hydrolysis of prodrug in human placental ALP solutions. It is filed as in vitro ADME. Conditions: human placental ALP solution, 37°C, 120 min, read-out: t1/2 (min) of prodrug disappearance. On the procedure:
Solid human placental ALP was obtained from Sigma (P-3895, St. Louis, Mo.). […] Solutions of 100 and 10 units/L were obtained by serial dilution. Iab was incubated in the 10, 100 and 1000 units/L solutions (n=2) at 37° C. for 2 hr. The starting concentration of Iab in the incubation was 10 μM. Aliquots of 100 μL samples were taken at pre-determined times and added into K2EDTA microtainers followed by the addition of 200 μL of acetonitrile.
Solid human placental ALP was obtained from Sigma (P-3895, St. Louis, Mo.). […] Solutions of 100 and 10 units/L were obtained by serial dilution. Ibb was incubated in the 10, 100 and 1000 units/L solutions (n=2) at 37° C. for 2 hr. The starting concentration of Ibb in the incubation was 10 μM. Aliquots of 100 μL samples were taken at pre-determined times and added into K2EDTA microtainers followed by the addition of 200 μL of acetonitrile.
Solid human placental ALP was obtained from Sigma (P-3895, St. Louis, Mo.). […] Solutions of 100 and 10 units/L were obtained by serial dilution. Icb was incubated in the 10, 100 and 1000 units/L solutions (n=2) at 37° C. for 2 hr. The starting concentration of Icb in the incubation was 10 μM. Aliquots of 100 μL samples were taken at pre-determined times and added into K2EDTA microtainers followed by the addition of 200 μL of acetonitrile. The supernatant was analyzed for both Icb and IVe by LC/MS/MS.

In the next data set the test system is dog hepatocytes. In words: Hydrolysis of prodrug in hepatocytes (dog). It is filed as in vitro ADME. As to the method:
(§1) The in vitro intrinsic clearance of Ibb in hepatocytes (Clint) was calculated as follows: Clint(μL/min/million cells)=Rate/CE where Rate is the rate of metabolism in hepatocytes (pmol/min/million cells), and CE is the concentration of Ibb in the incubation. The in vitro intrinsic clearance of Icb in hepatocytes (Clint) was calculated as follows: Clint(μL/min/million cells)=Rate/CE where Rate is the rate of metabolism in hepatocytes (pmol/min/million cells), and CE is the concentration of Icb in the incubation.

A further data set deals with monkey hepatocytes. In words: Hydrolysis of prodrug in hepatocytes (monkey). The data set is classed as in vitro ADME. On the procedure:
as §1

The next data set in a line: in vitro. Conditions: rat, serum.
The mark [7] stands for this setting: plasma, 1 mg/kg, historic, parent IV 1 mpk.
The mark [8] stands for this setting: plasma, iv, 1 mg/kg, after IV prodrug dosing equivalent to 1 mpk of parent, analyte = label, read-out: T1/2 i.v. (converted).
The mark [9] stands for this setting: plasma, iv, 1 mg/kg, historic, parent IV 1 mpk, read-out: T1/2 i.v. (converted).
Setting [10] is: plasma, 5 mg/kg, after PO prodrug dosing equivalent to 5 mpk of parent, analyte = label.
[11] abbreviates: plasma, 5 mg/kg, historic, after PO dosing of parent 5 mpk.
The mark [12] stands for this setting: plasma, po, 5 mg/kg, after PO prodrug dosing equivalent to 5 mpk of parent, analyte = label.
[13] abbreviates: plasma, po, 5 mg/kg, historic, after PO dosing of parent 5 mpk.
Setting [14] is: plasma, po, 5 mg/kg, after PO prodrug dosing equivalent to 5 mpk of parent.
Where [15] appears, read: plasma, po, 5 mg/kg, after PO prodrug dosing equivalent to 5 mpk of parent, read-out: T1/2 p.o. (converted).
The mark [16] stands for this setting: plasma, po, 5 mg/kg, historic, after PO dosing of parent 5 mpk, read-out: T1/2 p.o. (converted).
Where [17] appears, read: parent AUC after prodrug dosing vs after parent dosing.

In the case of `COc1ncc(OC)c2c(C(=O)C(=O)N3CCN(C(=O)c4ccccc4)CC3)c[nH]c12` [IVa, N-(benzoyl)-N′-[(4,7-dimethoxy-6-azaindol-3-yl)-oxoacetyl]piperazine], in data set [1] (setting [7]), the Vd worked out at 1.4 ± 0.4 L/kg. The half-life in data set [1] (setting [8]) was 2.8 ± 1.5 h; in data set [1] (setting [9]) it was 4 ± 2.6 h; in data set [1] (setting [15]), 3.3 ± 2.2 h; in data set [1] (setting [16]) it was 1.9 ± 0.8 h. Also, the concentration at 24 h in data set [1] (setting [10]) was 35.2 nM; in data set [1] (setting [11]) it was 9.2 nM. For the same compound, the AUC(0-t) in [1] (setting [12]) was determined as 5.9 ± 1 µM·h; in [1] (setting [13]), 14.9 ± 6.2 µM·h. In addition, the values for the Tmax in data set [1] (setting [14]) and in data set [1] (setting [13]) were 1.7 h and 2 h, respectively. The Cmax in data set [1] (setting [12]) turned out to be 1400 ± 600 nM; in data set [1] (setting [13]) it was 4500 ± 1500 nM. In addition, in [1] (historic, parent IV 1 mpk), the “CL i.v.” value was found to be 13 ± 4.6 mL/min/kg. For the same compound, the “AUC0 tot ratio after IV administration*” value in [1] (setting [17]) was 0.534. Also, the “AUCtot ratio after PO administration**” value in data set [1] (setting [17]) is listed as 0.39. Further, the “Iab / IVa Formed” value in data set [2] (Tris-HCl buffer (0.1 M, pH 7.5), 37°C, 0 min) worked out at 0.011 µM; in data set [2] (Tris-HCl buffer, 20 min) it was 0.008 µM; in data set [2] (Tris-HCl buffer, 40 min), 0.008 µM; in data set [2] (Tris-HCl buffer, 60 min), 0.009 µM; in data set [4] (37°C, 0 min), 0.10 µM; in [4] (15 min) it was 0.10 µM. The “Iab / IVa Formed” value was 0.15 µM in data set [4] (30 min); 0.20 µM in [4] (45 min); 0.24 µM in data set [4] (60 min); 0.32 µM in [4] (90 min); 0.20 µM in [5] (37°C, 0 min); 0.48 µM in [5] (15 min). The “Iab / IVa Formed” value in data set [5] (30 min) stood at 0.75 µM; in data set [5] (45 min), 1.2 µM; in data set [5] (60 min) it was 1.5 µM; in [5] (90 min) it was 2.0 µM. For the same compound, the “% IVa Formed (of starting concentration of Iab)” value (“% IVa Formed” below) in data set [2] (Tris-HCl buffer, 0 min) is given as 0.11%; in data set [2] (Tris-HCl buffer, 20 min) it was 0.081%; in data set [2] (Tris-HCl buffer, 40 min) it was 0.076%; in data set [2] (Tris-HCl buffer, 60 min) it was 0.088%; in data set [3] (Dog A EDTA blood (Table 15), 0 min) it was 0.30%; in data set [3] (Dog A EDTA blood (Table 15), 20 min) it was 2.4%. In addition, the “% IVa Formed” value in data set [3] (Dog A EDTA blood (Table 15), 40 min) is reported as 4.1%; in data set [3] (Dog A EDTA blood (Table 15), 60 min), 6.2%; in [3] (Dog A EDTA blood (repeat), 0 min) it was 0.63%; in data set [3] (Dog A EDTA blood (repeat), 15 min) it was 2.3%; in [3] (Dog A EDTA blood (repeat), 30 min) it was 3.4%; in data set [3] (Dog A EDTA blood (repeat), 45 min) it was 4.8%. Moreover, the “% IVa Formed” value was determined as 6.1% in data set [3] (Dog A EDTA blood (repeat), 60 min); 0.68% in [3] (Dog B EDTA blood, 0 min); 2.0% in [3] (Dog B EDTA blood, 15 min); 3.5% in data set [3] (Dog B EDTA blood, 30 min); 4.5% in [3] (Dog B EDTA blood, 45 min); 5.8% in data set [3] (Dog B EDTA blood, 60 min).

Consider `O=C(C(=O)N1CCN(C(=O)c2ccccc2)CC1)c1c[nH]c2c(-n3ccnn3)ncc(F)c12` [IVb], for which the Cmax in data set [1] (in vivo, 5 mg/kg, historic, after PO dosing of parent 5 mpk) worked out at 9500 ± 2800 nM; in data set [1] (setting [12]), 3900 ± 800 nM. Moreover, the Vd in [1] (setting [7]) was 0.49 ± 0.26 L/kg. In addition, the half-life in [1] (setting [8]) was 1.5 ± 0.2 h; in [1] (setting [9]), 5.9 ± 4.9 h; in [1] (setting [15]), 2.4 ± 0.5 h; in [1] (setting [16]) it was 3.7 ± 0.9 h. Also, the concentration at 24 h in data set [1] (setting [10]) amounted to 7.5 nM; in [1] (setting [11]), 161 nM. Also, the AUC(0-t) in data set [1] (setting [12]) stood at 13.7 ± 2.6 µM·h; in [1] (setting [13]) it was 86 ± 33 µM·h. Moreover, the values for the Tmax in data set [1] (setting [14]) and in data set [1] (setting [13]) were 1.1 h and 4.6 h, respectively.

As to `COc1cnc(-n2cnc(C)n2)c2[nH]cc(C(=O)C(=O)N3CCN(C(=O)c4ccccc4)CC3)c12` [IVc], the Vd in [1] (setting [7]) came out at 0.4 ± 0.09 L/kg. Further, the concentration at 24 h in [1] (setting [10]) stood at 84.3 nM; in [1] (setting [11]), 61 nM. The figures for the AUC(0-t) in data set [1] (setting [12]) and in data set [1] (setting [13]) were 56 ± 7.5 µM·h and 110 ± 25 µM·h, respectively. Moreover, the Tmax in [1] (setting [14]) worked out at 0.8 ± 0.1 h; in data set [1] (setting [13]) it was 4 h. In addition, the results for the Cmax in [1] (setting [12]) and in data set [1] (setting [13]) were 10200 ± 2100 nM and 13400 ± 3600 nM, respectively.

In the case of `COc1cnc(-n2cnc(C)n2)c2c1c(C(=O)C(=O)N1CCN(C(=O)c3ccccc3)CC1)cn2COP(=O)(O)O` [Icb, [3-[(4-benzoylpiperazin-1-yl)(oxo)acetyl]-4-methoxy-7-(3-methyl-1H-1,2,4-triazol-1-yl)-1H-pyrrolo[2,3-c]pyridin-1-yl]methyl dihydrogen phosphate, 2-amino-2-(hydroxymethyl)propane-1,3-diol salt (1:1)], the half-life at 10 μM in [6] (pH 7.5, ALP Activity 10 Units/L) is 250 min; in data set [6] (pH 7.5, ALP Activity 100 Units/L), 29 min; in data set [6] (pH 7.5, ALP Activity 1000 Units/L), 2.4 min; in “in vitro”, 0.7 h. The entries for the “hydrolysis in the presence of hepatocytes” value in the data set with dog hepatocytes and in the data set with monkey hepatocytes were “hydrolyzed” and “No turnover was observed”, respectively.

The term AUC(0-t) denotes exposure summed from dosing to a finite time, without extrapolation to infinity. For orientation: Tmax means the time at which the peak concentration occurs. By Cmax is commonly meant the maximum level reached in the sampled fluid or tissue.
